Measurements as given in patent EP0365134A1, “Synergistic compositions of renal dopaminergic agent and angiotensin converting enzyme inhibitors” (priority 1988, dated 1990).

Test: Renal clearance study in unanesthetized dogs: effective renal plasma flow (PAH clearance) and glomerular filtration rate (creatinine clearance)
Type: in vivo
Conditions: alone
Method: A modification of the renal function protocol, described in the prior art, was used for renal clearance studies in adult, trained, unanesthetized, fasted, female mongrel dogs, lightly restrained on their backs on a cradle-like board constructed specifically for this purpose. […] All dogs were given an oral water load of 500 ml of tap water thirty minutes prior to initiation of the study. […] Suitable plasma levels of creatinine and p-aminohippuric acid were obtained by a thirty minute infusion of this solution prior to starting of the initial urine collection (U₁) In addition, 1.5 ml/kg of a 1% creatinine solution in phosphate buffer was injected intravenously fifteen minutes prior to collection of U₁. Replicate urine collections were obtained at ten minute intervals throughout the experiment. The bladder was emptied by an indwelling catheter and complete urine collections were assured by rinsing the bladder with 10 mls of warm water at the end of each collection interval. This procedure was followed by an air washout. Venous blood samples were drawn from an indwelling catheter at the mid-point of each clearance period. Urine volumes were recorded at the time of collection. Plasma and urine samples were stored frozen, after collection, until analyzed. Analyses for creatinine and p-aminohippuric acid were made, by colorimetry, using standard AutoAnalyzer methodologies. These analyses were made simultaneously on each sample. Peak intensities were identified electronically, recorded on "on-line" teletype, stored and subsequently analyzed mathematically by time-shared computer against appropriate standards. Data were computed from linear least square regression lines, and quality control standards were analyzed simultaneously to evaluate system reproducibility and reliability. The bladder was emptied upon beginning the study and three control clearances (U₁-U₃, Phase 1) were obtained. […] Post-drug clearance C₄-C₆, C₇-C₉, C₁₀-C₁₂ (Phases II, III and IV) were collected immediately, with no delay between C₃ and C₄. […] Four dogs were used for each treatment. All compounds were weighed as free base content.

CS(=O)(=O)O.Oc1ccc(C2CNCCc3c2cc(O)c(O)c3Cl)cc1 (centres unmarked) [Fenoldopam, 6-Chloro-7,8-dihydroxy-1-(4-hydroxyphenyl)-2,3,4,5-tetrahydro-1H-3-benzazepine methyl sulfonate]
ERPF ( % from control) (Fenoldopam 2.5 mg/kg orally): 34 ± 5 % from control
GFR ( % from control) (Fenoldopam 2.5 mg/kg orally): -2 ± 2 % from control
ERPF ( % from control) (Fenoldopam 5.0 mg/kg orally): 47 ± 16 % from control
GFR ( % from control) (Fenoldopam 5.0 mg/kg orally): 6 ± 5 % from control
ERPF ( % from control) (Fenoldopam 10 mg/kg orally): 30 ± 2 % from control
GFR ( % from control) (Fenoldopam 10 mg/kg orally): -1 ± 2 % from control
ERPF ( % from control) (Fenoldopam 20 mg/kg orally): 44 ± 15 % from control
GFR ( % from control) (Fenoldopam 20 mg/kg orally): 1 ± 3 % from control
